Results on one compound are retold here after patent US8512769B2, “Valerian extract preparation” (priority 2006, dated 2013).

This assay relates to male CD rats. In words: Forced swimming test (FST) for antidepressive effect. Conditions: 1 mg/kg. Type of assay: in vivo. The text has this:
A more specific test for antidepressive activity is provided by the forced swimming test (FST) developed by Porsolt (Porsolt et al., 1978. Behavioural despair in rats: a new model sensitive to antidepressant treatments, Eur. J. Pharmacol. 47, 379-391).
In a so-called “forced swimming test”, the test animals (rats) are challenged by a stress situation from which they cannot escape by their own efforts. For this purpose, rats are at first left in a water-filled glass cylinder for a time of 15 minutes in a preliminary test (conditioning) one day before the actual test. The filling level is matched to the animals' body weight, so that every animal can support itself with the paws and tail and can keep its nose above water with minimum swimming movements. […] Twenty-four hours after this preliminary test, the test with valerian extract is performed in which the rats are again inserted into the water cylinders and the duration of immobility over a period of 5 minutes is cumulatively recorded.
For testing the valerian formulations on male CD rats, a pretreatment was used for 16 days, and the formulation according to Example 2b) was employed. […] The experiment was recorded by means of a video camera, and the time of immobility of the animals was later detected manually on the screen.

Consider `CN1C(=O)CN=C(c2ccccc2)c2cc(Cl)ccc21` [Diazepam], for which the “Shortening of immobility time as compared to the control group” value is reported as 28%.
